Test results from patent US11980633B2, “Method for treating cancer using a combination of DNA-damaging agents and DNA-PK inhibitors” (Vertex Pharmaceuticals Incorporated, priority 2016, dated 2024).

System: primary human ovarian tumors (dissociated cells)
Experiment: Tumor Chemosensitivity Assay (TCA): Compound B-2 with doxorubicin, primary ovarian tumors, viability after 6 days, Bliss
Format: cell-based
Set-up: Average Bliss score: scale not given here
Protocol: Specifically, one study described the combination of Compound B-2 and doxorubicin hydrochloride. In this study, a panel of primary human ovarian and endometrial tumors was dissociated and treated with Compound B-2 to determine the effectiveness of this selective DNA-PK inhibitor to enhance the activity of doxorubicin.
In both studies, cell viability was assessed after 6 days in culture. Statistical analysis of the combination matrix was performed to assess whether synergy, additivity, or antagonism of the combination treatments were observed.
Materials: Primary patient samples (See Tables 16 and 17, below) were excised from mice when they reached 500 mg to 1000 mg in size and processed immediately, or after overnight shipment. Tumors were serially passaged by subcutaneous implantation of 50 mg to 150 mg fragments into the flanks of immunocompromised (nude) mice. Tumors were used within the first 5 or 7 passages.
Tumor Chemosensitivity Assay (TCA): Primary tumor samples were grown and serially passaged in immunocompromised mice. Tumors were mechanically dissociated into small fragments (1 mm to 2 mm) with scalpels in phosphate buffered saline (PBS or RPMI) and centrifuged at 200×g for 5 minutes at room temperature in 50 mL centrifuge tubes. Samples were resuspended in 10 mL of cell dissociation reagent and enzymatically digested with mechanical agitation for 1 to 3 hours at 37° C., 5% CO2 to a single cell suspension. Ten mL of complete RPMI-1640 media was added to the cell mixture and pipetted up and down 4 to 5 times. The mixture was then passed through a 70 μm or 100 μm mesh strainer to remove undigested tumor. The filtrate was then centrifuged 200×g for 5 minutes at room temperature and resuspended in 20 mL complete RPMI-1640. This cell suspension was slowly layered onto 20 mL of room temperature Histopaque and centrifuged at 400×g for 15 minutes at room temperature without a brake. The interface was transferred to a new 50 mL centrifuge tube and 15 mL of complete RPMI-1640 was added. This suspension was centrifuged at 200×g at room temperature, and the resulting pellet was resuspended in 10 mL of complete PC-1 media, except for pancreatic tumors in which case Pancreatic Medium was used. Cells were diluted in Trypan blue, and viable cells that excluded the dye were counted. Only the larger, tumor cells were included in the cell count. Cells were diluted in complete PC-1 or Pancreatic media, as appropriate for the cells, and were plated at 15,000 to 20,000 cells per well in 100-135 μL in ultra-low attachment U-bottom plates.
Compound Addition: For these studies, a 10 mM stock of the DNA-PK inhibitor (Compound B-1 or Compound B-2) was made in DMSO and used to add to cells from most tumors with HP D300 Digital Dispenser (Tecan US, Morrisville, NC, USA), or diluted into the appropriate media (PC-1 or pancreatic media) as a 5-10× stock and added to cells (OVX001 and ENX001, 005). PC-1, pancreatic media, and chemotherapeutics were also added so that final well volume was 150 μL. Doxorubicin was made as DMSO stock of 1 or 10 mM and added to cells for most tumors with HP D300 Digital Dispenser, or diluted into PC-1 as 5-10× stock and added to cells (OVX001 and ENX001, 005). Cisplatin (cis-diammine platinum(II), dichloride) was prepared fresh to 10 mM in warm (60° C.) distilled water and diluted in PC-1 as a 5-10× stock. […] Different starting concentrations, dose ranges, and number of doses were used for each experiment based on the response data available at the time.
For doxorubicin hydrochloride experiments, combinations with Compound B-2 at all concentrations were run in triplicate. A 6×3 matrix was designed on each plate: 0.73 μM and 2.2 μM Compound B-2, or 0.37 μM and 4.4 μM Compound B-2 on some tumors where additional cells were available, plus no treatment control, in 3 columns each of 6 wells. Doxorubicin hydrochloride (plus ‘no treatment’ control) was added to 9 wells in rows of this plate. […]

**Q.** What does the source list for `[2H]c1nc(C)nc([2H])c1-c1cc(NC[C@@H](C)c2cccc3c(C(=O)NC)ccnc23)ncn1` [Compound B-2]?
**A.** tumors that showed synergy or additivity (11 ovarian tumors): 100%; tumors that showed strong synergy (four of 11 ovarian tumors): 36%; Average Bliss score (tumor CTG-0252 (Ovarian)): 14; Synergy/Additivity/Antagonism (tumor CTG-0252 (Ovarian)): Strongly Synergistic (greater than 10 are considered strongly synergistic); Average Bliss score (tumor CTG-0253 (Ovarian)): 6; Synergy/Additivity/Antagonism (tumor CTG-0253 (Ovarian)): Synergistic (greater than 5 are considered synergistic); Average Bliss score (tumor CTG-0258 (Ovarian)): 9; Synergy/Additivity/Antagonism (tumor CTG-0258 (Ovarian)): Synergistic (greater than 5 are considered synergistic); Average Bliss score (tumor CTG-0486 (Ovarian)): 5; Synergy/Additivity/Antagonism (tumor CTG-0486 (Ovarian)): Additive (Values between 5 and −5 are considered additive); Average Bliss score (tumor CTG-0791 (Ovarian)): 14; Synergy/Additivity/Antagonism (tumor CTG-0791 (Ovarian)): Strongly Synergistic (greater than 10 are considered strongly synergistic); Average Bliss score (tumor CTG-0947 (Ovarian)): 10; Synergy/Additivity/Antagonism (tumor CTG-0947 (Ovarian)): Synergistic (greater than 5 are considered synergistic); Average Bliss score (tumor CTG-0992 (Ovarian)): 8; Synergy/Additivity/Antagonism (tumor CTG-0992 (Ovarian)): Synergistic (greater than 5 are considered synergistic); Average Bliss score (tumor CTG-1166 (Ovarian)): 8; Synergy/Additivity/Antagonism (tumor CTG-1166 (Ovarian)): Synergistic (greater than 5 are considered synergistic); Average Bliss score (tumor CTG-1301 (Ovarian)): 8; Synergy/Additivity/Antagonism (tumor CTG-1301 (Ovarian)): Synergistic (greater than 5 are considered synergistic); Average Bliss score (tumor CTG-1423 (Ovarian)): 12; Synergy/Additivity/Antagonism (tumor CTG-1423 (Ovarian)): Strongly Synergistic (greater than 10 are considered strongly synergistic); Average Bliss score (tumor OVX001 (Ovarian)): 11; Synergy/Additivity/Antagonism (tumor OVX001 (Ovarian)): Strongly Synergistic (greater than 10 are considered strongly synergistic)
